Results: patent US3995059A, “Pharmaceutical compositions containing fatty acid amide derivatives” (Sumitomo Chemical Company, Limited, priority 1966, dated 1976)

What was measured:
[1] = test system: total cholesterol value in the blood serum; test: Total cholesterol in blood serum of mice fed a diet enriched with cholesterol and bile acids (Table 1); assay type: in vivo; details: 0.2% in diet, 8 to 12 days; for Serum cholesterol: oral
Procedure: The effectiveness of the compounds was tested by using mice fed on a specific diet which was enriched with cholesterol and bile acids. […] The amide compound as well was mixed with the specific diet in an amount of 0.2%, and continuously administered orally for 8 to 12 days. Then the total cholesterol value in the blood serum of the animals was evaluated.

liver cholesterol = test: Liver cholesterol (deposition of cholesterol and fat in the liver) of mice fed a cholesterol-rich diet (Table 1); assay type: in vivo; details: for Liver cholesterol: 0.2% in diet, oral, 8 to 12 days
[2] = experiment [III], control not given

Work on `CC/C=C\C/C=C\C/C=C\CCCCCCCC(=O)NC(C)c1ccccc1` (single isomer, unassigned; (-)) [(-) (α-Methylbenzyl)-linolenamide] yielded a Serum cholesterol ([1]; experiment [II], control 521) of 253 mg % and a Liver cholesterol (liver cholesterol; experiment [II], control 3308) of 767 mg/100 g.
With `CCCCCCCC/C=C\CCCCCCCC(=O)NC(C)c1ccccc1` (single isomer, unassigned; (-)) [(-) (α-Methylbenzyl)-oleamide] the Serum cholesterol ([1]; experiment [II], control 521) was 283 mg % and the Liver cholesterol (liver cholesterol; experiment [II], control 3308) was 808 mg/100 g.
`CCCCCC=CCC=CCCCCCCCC(=O)NC(Cc1ccccc1)c1ccccc1` (centres unmarked) [C17 H31 CO] showed a Serum cholesterol ([1]; experiment [V], control 372) of 214 mg % and a Liver cholesterol (liver cholesterol; experiment [V], control 2640) of 544 mg/100 g.
Compound `CCCCC/C=C\C/C=C\CCCCCCCC(=O)O` [Linoleic acid, reference compound] has a Serum cholesterol ([1]; experiment [II], control 521) of 329 mg %, a Serum cholesterol ([1]; experiment [I], control 546) of 324 mg % and a Serum cholesterol ([1]; experiment [VII], control 508) of 341 mg %. The Serum cholesterol ([1]; experiment [V], control 372) was 351 mg %, the “ineffective cases and variation of effectiveness” value ([1]; mice) was “ineffective cases were sometimes observed due to the individual difference of the animals, and the effectiveness varied considerably even in the same individual animal” and the “prevention of deposition of cholesterol and fat in the liver” value (liver cholesterol; animals fed on a diet rich in cholesterol) was “such effectiveness is never observed”. It also gave a Liver cholesterol (liver cholesterol; experiment [II], control 3308) of 4491 mg/100 g, a Liver cholesterol (liver cholesterol; experiment [I], control 3585) of 4585 mg/100 g and a Liver cholesterol (liver cholesterol; experiment [VII], control 3535) of 4550 mg/100 g. It also gave a Liver cholesterol (liver cholesterol; experiment [V], control 2640) of 3124 mg/100 g.
With `CCCCCC=CCC=CCCCCCCCC(=O)NC(Cc1ccccc1)c1ccccc1` (stereo not drawn) [d- C17 H31 CO] the Serum cholesterol ([1]; experiment [V], control 372) was 200 mg % and the Liver cholesterol (liver cholesterol; experiment [V], control 2640) was 500 mg/100 g.
Work on `CCCCCCCC/C=C\CCCCCCCC(=O)NC(Cc1ccccc1)c1ccccc1` (stereo not drawn) [d- drawing 33] yielded a Serum cholesterol ([1]; experiment [V], control 372) of 222 mg % and a Liver cholesterol (liver cholesterol; experiment [V], control 2640) of 729 mg/100 g.
In the case of `CC(C)CCCCCCCCCCCCCCC(=O)NC(Cc1ccccc1)c1ccccc1` (stereo not drawn) [d- iso-C17 H35 CO], the Serum cholesterol ([1]; experiment [V], control 372) is reported as 209 mg % and the Liver cholesterol (liver cholesterol; experiment [V], control 2640) is reported as 561 mg/100 g.
`CCCCCCCC/C=C\CCCCCCCC(=O)NC(C)c1ccccc1` (centres unmarked) [drawing 7] gave a Serum cholesterol ([1]; experiment [II], control 521) of 290 mg % and a Liver cholesterol (liver cholesterol; experiment [II], control 3308) of 815 mg/100 g.
For `CCCCCCCC/C=C\CCCCCCCC(=O)NC(C)c1ccccc1` (centres unmarked) [drawing 8], the Serum cholesterol ([1]; experiment [II], control 521) was 295 mg % and the Liver cholesterol (liver cholesterol; experiment [II], control 3308) was 1330 mg/100 g.
`CCCCCCCCCCCCCC(=O)NC(C)c1ccccc1` (centres unmarked) [drawing 9] showed a Serum cholesterol ([1]; experiment [II], control 521) of 302 mg % and a Liver cholesterol (liver cholesterol; experiment [II], control 3308) of 1620 mg/100 g.
Compound `CCCCCCCCCCCCCC(=O)NC(C)c1ccccc1` (centres unmarked) [drawing 10] has a Serum cholesterol ([1]; experiment [II], control 521) of 252 mg % and a Liver cholesterol (liver cholesterol; experiment [II], control 3308) of 1820 mg/100 g.
`CCCCCCCCCCCCCCCC(=O)NC(C)c1ccccc1` (centres unmarked) [drawing 11] gave a Serum cholesterol ([1]; experiment [II], control 521) of 300 mg % and a Liver cholesterol (liver cholesterol; experiment [II], control 3308) of 906 mg/100 g.
`CCCCCCCCCCCCCCCC(=O)NC(C)c1ccccc1` (centres unmarked) [drawing 12] showed a Serum cholesterol ([1]; experiment [II], control 521) of 314 mg % and a Liver cholesterol (liver cholesterol; experiment [II], control 3308) of 1160 mg/100 g.
`CCCCC/C=C\C/C=C\CCCCCCCC(=O)NC(CC)c1ccccc1` (centres unmarked) [drawing 13] showed a Serum cholesterol ([1]; experiment [II], control 521) of 274 mg % and a Liver cholesterol (liver cholesterol; experiment [II], control 3308) of 992 mg/100 g.
In the case of `CCCCC/C=C\C/C=C\CCCCCCCC(=O)NC(CC)c1ccccc1` (centres unmarked) [drawing 14], the Serum cholesterol ([1]; experiment [II], control 521) is reported as 302 mg % and the Liver cholesterol (liver cholesterol; experiment [II], control 3308) is reported as 1042 mg/100 g.
`CCCCC/C=C\C/C=C\CCCCCCCC(=O)NC(C)c1ccc(Cl)cc1` (centres unmarked) [drawing 17] showed a Serum cholesterol ([1]; experiment [III], control 471) of 225 mg % and a Liver cholesterol (liver cholesterol; [2]) of 946 mg/100 g.
For `CCCCC/C=C\C/C=C\CCCCCCCC(=O)NC(C)c1ccc(Cl)c(Cl)c1` (centres unmarked) [drawing 18], the Serum cholesterol ([1]; experiment [III], control 471) was 315 mg % and the Liver cholesterol (liver cholesterol; [2]) was 856 mg/100 g.
`CCCCC/C=C\C/C=C\CCCCCCCC(=O)NC(CC)c1ccc(C)cc1` (centres unmarked) [drawing 21] showed a Serum cholesterol ([1]; experiment [III], control 471) of 242 mg % and a Liver cholesterol (liver cholesterol; [2]) of 1065 mg/100 g.
`CCCCC/C=C\C/C=C\CCCCCCCC(=O)NC(C)c1ccc(C)cc1` (centres unmarked) [drawing 22] gave a Serum cholesterol ([1]; experiment [III], control 471) of 237 mg % and a Liver cholesterol (liver cholesterol; [2]) of 1047 mg/100 g.
`CCCCC/C=C\C/C=C\CCCCCCCC(=O)NC(C)c1ccc(C)cc1` (centres unmarked) [drawing 23] gave a Serum cholesterol ([1]; experiment [IV], control 595) of 240 mg % and a Liver cholesterol (liver cholesterol; experiment [IV], control 3145) of 828 mg/100 g.
In the case of `CCCCC/C=C\C/C=C\CCCCCCCC(=O)NC(CC)c1ccc(C)cc1` (centres unmarked) [drawing 24], the Serum cholesterol ([1]; experiment [IV], control 595) is reported as 321 mg % and the Liver cholesterol (liver cholesterol; experiment [IV], control 3145) is reported as 908 mg/100 g.
With `CCCCC/C=C\C/C=C\CCCCCCCC(=O)NC(C)c1ccc(Cl)cc1` (centres unmarked) [drawing 25] the Serum cholesterol ([1]; experiment [IV], control 595) was 217 mg % and the Liver cholesterol (liver cholesterol; experiment [IV], control 3145) was 826 mg/100 g.
Work on `CCCCC/C=C\C/C=C\CCCCCCCC(=O)NC(C)c1ccc(Cl)c(Cl)c1` (centres unmarked) [drawing 26] yielded a Serum cholesterol ([1]; experiment [IV], control 595) of 251 mg % and a Liver cholesterol (liver cholesterol; experiment [IV], control 3145) of 1000 mg/100 g.
Compound `CC/C=C\C/C=C\C/C=C\CCCCCCCC(=O)NC(C)c1ccccc1C` (centres unmarked) [drawing 29] has a Serum cholesterol ([1]; experiment [IV], control 595) of 222 mg % and a Liver cholesterol (liver cholesterol; experiment [IV], control 3145) of 913 mg/100 g.
